Assay results as given in patent US11464763B2, “Parasiticidal compositions comprising an isoxazoline active agent, methods and uses thereof” (BOEHRINGER INGELHEIM ANIMAL HEALTH USA INC., priority 2011, dated 2022).
≈ marks a conversion by molar mass, not a printed value.

Tests used:
[1] = 14C radiolabeled drug, beagle dogs, spot-on administration; cited from earlier work
[2] = tested on: Ctenocephalides felis; assay: Spot-on efficacy of Compound A, pyriproxyfen and nitenpyram against Ctenocephalides felis fleas in cats (Example 11); type: in vivo; settings: Group 5: 2.08% nitenpyram alone in Transcutol, 5.0 mg/kg
Method: The efficacy of three spot-on compositions comprising a combination of Compound A, pyriproxyfen and nitenpyram against Ctenocephalides felis fleas in cats was studied and compared with an untreated control and with a spot-on composition comprising nitenpyram alone. Cats were allocated into five Treatment Groups with 5 cats per group: Group 1—cats were untreated (control); Group 2—cats were treated spot-on solution containing 0.83% (w/v) Compound A, 2.08% (w/v) nitenpyram, and 4.17% (w/v) pyriproxyfen in Transcutol® to deliver doses of 1.0 mg/kg Compound A, 2.5 mg/kg nitenpyram and 5.0 mg/kg pyriproxyfen; Group 3—cats were treated a spot-on solution containing 0.83% (w/v) Compound A, 4.17% (w/v) nitenpyram, and 4.17% (w/v) pyriproxyfen in Transcutol® to deliver doses of 1.0 mg/kg Compound A, 5.0 mg/kg nitenpyram and 5.0 mg/kg pyriproxyfen; Group 4—cats were treated with a spot-on composition containing 0.83% (w/v) Compound A, 8.33% (w/v) nitenpyram and 4.17% (w/v) pyriproxyfen in Transcutol® to deliver doses of 1.0 mg/kg Compound A, 10.0 mg/kg nitenpyram and 5.0 mg/kg pyriproxyfen; Group 5—cats were treated with a spot-on composition containing 2.08% (w/v) nitenpyram alone in Transcutol® to deliver a dose of 5.0 mg/kg body weight.
Treatment was administered once on Day 0. The cats were each infested with approximately 100 C. felis fleas at day −1, on Day 0 approximately 12 hours post treatment and then on Days 1 (approx. 24 hours post treatment), 2, 7, 14, 21, 28 and 35. After each infestation, fleas were removed and counted approximately 12 hours (±3) on Day 0, and then on Days 1, 2, 8, 15, 22, 29 and 36 (24±3 hours after infestation).

[3] = 20° C. and pH of 7; cited from earlier work

Row | SMILES | persistently detected in the whole skin after treatment [1] | % Reduction ([2]; Day 0 (12 h)) [%] | % Reduction ([2]; Day 1 (24 h)) [%] | % Reduction ([2]; Day 2 (24 h)) [%] | % Reduction ([2]; Day 8 (24 h)) [%] | % Reduction ([2]; Day 15 (24 h)) [%] | % Reduction ([2]; Day 22 (24 h)) [%] | solubility in water [3] [mg/mL]
1 | N#Cc1nn(-c2c(Cl)cc(C(F)(F)F)cc2Cl)c(N)c1[S+]([O-])C(F)(F)F (centres unmarked) [fipronil] | up to 56 days |  |  |  |  |  |  | 
2 | CCN(Cc1ccc(Cl)nc1)/C(=C/[N+](=O)[O-])NC [nitenpyram] |  | 99.44 | 99.79 | 100.00 | 100.00 | 96.76 | 93.63 | 840 (≈ 3100 mM)
